In patent publication US5124352A, “Fat emulsions containing isocarbacyclin” (Teijin Limited, priority 1985, dated 1992):

Tests used:
[1] = system: PRP (ADP platelet agglutination); assay: ADP platelet agglutination inhibitory action by PRP; type: cell-based; set-up: reference not given here; conditions: 37° C., 0.025 μm filtrate
Method: Fifty (50) μl of the fat emulsion obtained in Examples 1 and 2 was transferred into 950 μl of saline or 2 % bovine serum albumin (BSA) and incubated at 37° C. for 1, 3, and 10 minutes. Next, the ADP platelet agglutination inhibitory action by PRP was determined using the filtrate which had been passed through a 0.025 μm filter. A known quantity of the dilution before filtration was added to PRP and incubated at 37° C. for 1 minute. Thereafter, ADP agglutination was induced to construct a dose-response curve. The platelet agglutination inhibitory action was calculated from this curve.

human platelets = assay: Time course of the formation of cyclic AMP using human platelets (production capability and maintenance of cyclic AMP); type: cell-based; conditions: for Relative value (C-AMP production): first time point of the series = 100; for C-AMP production: human platelets, 37° C.
Method: The time course of the formation of cyclic AMP by the fat emulsion in the invention was determined using human platelets so as to compare with the time course of the compound which was not emulsified in fat. Human blood 50 ml was collected using 1 part of 3.8 % sodium citrate for 9 parts of blood. The blood sample was centrifuged at 1300 rpm for 10 minutes. The upper layer was taken out as PRP (platelet-rich plasma) and centrifuged at 3000 rpm for 20 minutes. The precipitate thus obtained (platelets) was suspended in 2 ml of Tris buffered solution-saline-glucose-EDTA (TSG-EDTA) (pH 7.4).
The fat emulsion, which had previously been transferred in a plastic tube containing 350 μl of TSG-EDIA and 50 μl of platelet suspension and incubated at 37° C., was supplemented with 50 μl of 5mM isobutylmethylxanthin dissolved in saline, and 2 minutes later, reactions were stopped with 0.5 ml of 10% trichloroacetic acid (TCA). The cells were destroyed by thawing the lyophilized specimen in order to release intracellular cyclic AMP. After removal of TCA with watersaturated ether, the content of C-AMP was determined by radio immunoassay technique.

Structure (SMILES) | Platelet agglutination inhibitory action ([1]; 2% BSA, incubation time 1 min) [%] | Platelet agglutination inhibitory action ([1]; 2% BSA, incubation time 10 min) [%] | Relative value (C-AMP production) (human platelets; Time 0 min) [%] | C-AMP production (human platelets; Time 0 min) [pico mol] | Relative value (C-AMP production) (human platelets; Time 30 min) [%] | C-AMP production (human platelets; Time 30 min) [pico mol] | Relative value (C-AMP production) (human platelets; Time 60 min) [%] | C-AMP production (human platelets; Time 60 min) [pico mol] | Platelet agglutination inhibitory action ([1]; Saline, incubation time 10 min) [%] | Relative value (C-AMP production) (human platelets; Time 10 min) [%] | C-AMP production (human platelets; Time 10 min) [pico mol] | Relative value (C-AMP production) (human platelets; Time 120 min) [%] | C-AMP production (human platelets; Time 120 min) [pico mol]
CCCCCC(O)C=CC1C(O)CC2C=C(CCCCC(=O)OC)CC21 (centres unmarked) [(IV), isocarbacyclin methyl ester] | 65.4 | 56.2 | – | – | – | – | – | – | – | – | – | – | –
CCCCCC(O)C=CC1C(O)CC2C=C(CCCCC(=O)O)CC21 (stereo not drawn) [Compound (I), 9(0)-methano-Δ^6(9α) -PGI1] | 100.1 | 107.7 | 100 | 320 | 63 | 200 | 31 | 100 | 41.1 | – | – | – | –
CCCCCC(O)C=CC1C(O)CC2C=C(CCCCC(=O)O)CC21 (centres unmarked) [Compound (II), 16,17,18,19,20-pentanor-15-pentylisocarbacyclin] | – | – | – | – | 74 | 320 | 27 | 120 | – | 100 | 430 | – | –
COC(=O)CCCC=C1OC2CC(O)C(C=CC(O)C3CCCC3)C2C1F (centres unmarked) [Compound (III), 7-fluoro-16,17,18,19, 20-pentanor-15-cyclopentylprostacyclin methyl ester] | – | – | – | – | 100 | 100 | 90 | 90 | – | – | – | 40 | 40
